Laboratory results taken from ChEMBL document CHEMBL4613212, “Insights of synthetic analogues of anti-leprosy agents” (Bioorg Med Chem, 2019).
Values after ≈ are worked out from the molar mass of the structure shown.

Experiments:
[1] = tested on: Mycobacterium tuberculosis; test: Antitubercular activity against Mycobacterium tuberculosis H37Rv ATCC 27294 assessed as inhibition of [3H]-thymidine incorporation at 1 ug/ml relative to control; type: functional
[2] = Selectivity index, ratio of IC50 for African green monkey Vero cells to MIC for antitubercular activity against Mycobacterium tuberculosis H37Rv; type: toxicity; details: Vero cells, read-out: Selectivity Index
[3] = tested on: Mycobacterium tuberculosis; test: Antitubercular activity against Mycobacterium tuberculosis H37Rv ATCC 27294 assessed as growth inhibition at 6.25 ug/ml by microplate alamar blue assay relative to control; type: functional
Mycobacterium leprae [4] = test: Anti-leprotic activity against rifampicin-susceptible Mycobacterium leprae primary cultures at 4 weeks assessed as ATP level per 10^7 cells at 0.2 mg/L measured by bioluminescence assay (reference value: 332 +/- 46 pg); type: functional
Mycobacterium leprae [5] = test: Anti-leprotic activity against rifampicin-susceptible Mycobacterium leprae primary cultures at 4 weeks assessed as [3H]thymidine uptake per 5 times 10^7 cells at 0.025 mg/L incubated for 24 hrs (reference value: 1.05 +/- 0.16 pmol); type: functional
Mycobacterium leprae [6] = test: Anti-leprotic activity against rifampicin-susceptible Mycobacterium leprae subcultures at 4 weeks assessed as ATP level per 10^7 cells at 0.2 mg/L measured by bioluminescence assay (reference value: 425 +/- 64 pg); type: functional
Mycobacterium leprae [7] = test: Anti-leprotic activity against rifampicin-susceptible Mycobacterium leprae subcultures at 4 weeks assessed as [3H]thymidine uptake per 5 times 10^7 cells at 0.1 mg/L incubated for 24 hrs (reference value: 1.41 +/- 0.20 pmol); type: functional
Mycobacterium leprae [8] = test: Anti-leprotic activity against rifampicin-susceptible Mycobacterium leprae subcultures at 4 weeks assessed as [3H]thymidine uptake per 5 times 10^7 cells at 0.05 mg/L incubated for 24 hrs (reference value: 1.41 +/- 0.20 pmol); type: functional
Mycobacterium leprae [9] = test: Anti-leprotic activity against rifampicin-susceptible Mycobacterium leprae primary cultures at 4 weeks assessed as [3H]thymidine uptake per 5 times 10^7 cells at 0.05 mg/L incubated for 24 hrs (reference value: 1.05 +/- 0.16 pmol); type: functional
Mycobacterium leprae [10] = test: Anti-leprotic activity against rifampicin-susceptible Mycobacterium leprae subcultures at 4 weeks assessed as [3H]thymidine uptake per 5 times 10^7 cells at 0.025 mg/L incubated for 24 hrs (reference value: 1.41 +/- 0.20 pmol); type: functional
Mycobacterium leprae [11] = test: Anti-leprotic activity against rifampicin-susceptible Mycobacterium leprae primary cultures at 4 weeks assessed as ATP level per 10^7 cells at 0.05 mg/L measured by bioluminescence assay (reference value: 332 +/- 46 pg); type: functional
Mycobacterium leprae [12] = test: Anti-leprotic activity against rifampicin-susceptible Mycobacterium leprae subcultures at 4 weeks assessed as ATP level per 10^7 cells at 0.05 mg/L measured by bioluminescence assay (reference value: 425 +/- 64 pg); type: functional
Mycobacterium leprae [13] = test: Anti-leprotic activity against rifampicin-susceptible Mycobacterium leprae subcultures at 4 weeks assessed as ATP level per 10^7 cells at 0.025 mg/L measured by bioluminescence assay (reference value: 425 +/- 64 pg); type: functional
Mycobacterium leprae [14] = test: Anti-leprotic activity against rifampicin-susceptible Mycobacterium leprae primary cultures at 4 weeks assessed as [3H]thymidine uptake per 5 times 10^7 cells at 0.2 mg/L incubated for 24 hrs (reference value: 1.05 +/- 0.16 pmol); type: functional
Mycobacterium leprae [15] = test: Anti-leprotic activity against rifampicin-susceptible Mycobacterium leprae primary cultures at 4 weeks assessed as ATP level per 10^7 cells at 0.1 mg/L measured by bioluminescence assay (reference value: 332 +/- 46 pg); type: functional
Mycobacterium leprae [16] = test: Anti-leprotic activity against rifampicin-susceptible Mycobacterium leprae primary cultures at 4 weeks assessed as [3H]thymidine uptake per 5 times 10^7 cells at 0.1 mg/L incubated for 24 hrs (reference value: 1.05 +/- 0.16 pmol); type: functional
Mycobacterium leprae [17] = test: Anti-leprotic activity against rifampicin-susceptible Mycobacterium leprae subcultures at 4 weeks assessed as ATP level per 10^7 cells at 0.1 mg/L measured by bioluminescence assay (reference value: 425 +/- 64 pg); type: functional
Mycobacterium leprae [18] = test: Anti-leprotic activity against rifampicin-susceptible Mycobacterium leprae primary cultures at 4 weeks assessed as ATP level per 10^7 cells at 0.025 mg/L measured by bioluminescence assay (reference value: 332 +/- 46 pg); type: functional
Mycobacterium leprae [19] = test: Anti-leprotic activity against rifampicin-susceptible Mycobacterium leprae subcultures at 4 weeks assessed as [3H]thymidine uptake per 5 times 10^7 cells at 0.2 mg/L incubated for 24 hrs (reference value: 1.41 +/- 0.20 pmol); type: functional
[20] = tested on: Mycobacterium tuberculosis; test: Antimycobacterial activity against Mycobacterium tuberculosis H37Rv infected in CF-1 mouse assessed as change in survival time at 5 mg/kg administrated daily for 14 days with food relative to control; type: functional
[21] = tested on: Mycobacterium tuberculosis; test: Antimycobacterial activity against Mycobacterium tuberculosis H37Rv infected in CF-1 mouse assessed as change in survival time at 3 mg/kg administrated daily for 14 days with food relative to control; type: functional
[22] = tested on: Mycobacterium tuberculosis; test: Antimycobacterial activity against Mycobacterium tuberculosis H37Rv infected in CF-1 mouse assessed as change in survival time at 11 mg/kg administrated daily for 14 days with food relative to control; type: functional
Listeria monocytogenes = test: Antimicrobial activity against Listeria monocytogenes ATCC 1911 by broth microdilution assay; type: functional
Staphylococcus aureus = test: Antimicrobial activity against Staphylococcus aureus ATCC 25923 by broth microdilution assay; type: functional
Pseudomonas aeruginosa = test: Antimicrobial activity against Pseudomonas aeruginosa ATCC 27853 by broth microdilution assay; type: functional
Escherichia coli [23] = test: Antimicrobial activity against Escherichia coli ATCC 35218 by broth microdilution assay; type: functional
[24] = tested on: Mycobacterium tuberculosis; test: Antitubercular activity against Mycobacterium tuberculosis H37Rv ATCC 27294 incubated for 7 days by microplate alamar blue assay; type: functional; details: H37Rv ATCC 27294, 168 h
Klebsiella pneumoniae = test: Antimicrobial activity against Klebsiella pneumoniae 700603 by broth microdilution assay; type: functional
Enterococcus faecalis [25] = test: Antimicrobial activity against Enterococcus faecalis ATCC 51922 by broth microdilution assay; type: functional
Escherichia coli [26] = test: Antimicrobial activity against Escherichia coli ATCC 25922 by broth microdilution assay; type: functional
Nakaseomyces glabratus = test: Antifungal activity against Candida glabrata; type: functional
Enterococcus faecalis [27] = test: Antimicrobial activity against Enterococcus faecalis ATCC 29212 by broth microdilution assay; type: functional
[28] = tested on: Mycobacterium tuberculosis; test: Antitubercular activity against Mycobacterium tuberculosis H37Rv ATCC 27294 assessed as inhibition of [3H]-thymidine incorporation relative to control; type: functional
[29] = tested on: Mycobacterium tuberculosis; test: Antitubercular activity against Mycobacterium tuberculosis H37Rv ATCC 27294 assessed as inhibition of [3H]-thymidine incorporation; type: functional, organism-based
Mycobacterium leprae [30] = test: Anti-leprotic activity against Mycobacterium leprae primary cultures at 4 weeks assessed as ATP level per 10^7 cells at 5.0 mg/L measured by bioluminescence assay (reference value: 314 +/- 46 pg); type: functional
Mycobacterium leprae [31] = test: Antimicrobial activity against Mycobacterium leprae; type: functional
Mycobacterium leprae [32] = test: Anti-leprotic activity against Mycobacterium leprae primary cultures at 4 weeks assessed as ATP level per 10^7 cells at 15.0 mg/L measured by bioluminescence assay (reference value: 314 +/- 46 pg); type: functional
Mycobacterium leprae [33] = test: Anti-leprotic activity against Mycobacterium leprae primary cultures at 4 weeks assessed as [3H]thymidine uptake per 5 times 10^7 cells at 15.0 mg/L (reference value: 0.95 +/- 0.01 pmol); type: functional
Mycobacterium leprae [34] = test: Anti-leprotic activity against Mycobacterium leprae subcultures at 4 weeks assessed as ATP level per 10^7 cells at 10.0 mg/L measured by bioluminescence assay (reference value: 462 +/- 64 pg); type: functional
Mycobacterium leprae [35] = test: Anti-leprotic activity against Mycobacterium leprae subcultures at 4 weeks assessed as ATP level per 10^7 cells at 5.0 mg/L measured by bioluminescence assay (reference value: 462 +/- 64 pg); type: functional
Mycobacterium leprae [36] = test: Anti-leprotic activity against Mycobacterium leprae subcultures at 4 weeks assessed as [3H]thymidine uptake per 5 times 10^7 cells at 15.0 mg/L (reference value: 1.28 +/- 0.14 pmol); type: functional
Mycobacterium leprae [37] = test: Anti-leprotic activity against Mycobacterium leprae subcultures at 4 weeks assessed as [3H]thymidine uptake per 5 times 10^7 cells at 10.0 mg/L (reference value: 1.28 +/- 0.14 pmol); type: functional
Mycobacterium leprae [38] = test: Anti-leprotic activity against Mycobacterium leprae primary cultures at 4 weeks assessed as [3H]thymidine uptake per 5 times 10^7 cells at 5.0 mg/L (reference value: 0.95 +/- 0.01 pmol); type: functional
Mycobacterium leprae [39] = test: Anti-leprotic activity against Mycobacterium leprae subcultures at 4 weeks assessed as ATP level per 10^7 cells at 15.0 mg/L measured by bioluminescence assay (reference value: 462 +/- 64 pg); type: functional
Mycobacterium leprae [40] = test: Anti-leprotic activity against Mycobacterium leprae subcultures at 4 weeks assessed as [3H]thymidine uptake per 5 times 10^7 cells at 5.0 mg/L (reference value: 1.28 +/- 0.14 pmol); type: functional
Mycobacterium leprae [41] = test: Anti-leprotic activity against Mycobacterium leprae primary cultures at 4 weeks assessed as ATP level per 10^7 cells at 10.0 mg/L measured by bioluminescence assay (reference value: 314 +/- 46 pg); type: functional
Mycobacterium leprae [42] = test: Anti-leprotic activity against Mycobacterium leprae primary cultures at 4 weeks assessed as [3H]thymidine uptake per 5 times 10^7 cells at 10.0 mg/L (reference value: 0.95 +/- 0.01 pmol); type: functional

## c1ccc(Cn2cnc3c(-c4cccs4)ncnc32)cc1
[1]
  inhibition at 1 µg/mL: < 10%
[2]
  selectivity ratio: > 1.6
[3]
  inhibition at 6.25 µg/mL: > 90%

## CCC(C)N1CCN(c2cc(O)c3nc4c5c6c7c(C)c(O)c5c(=O)c(c-4oc3c2)NC(=O)/C(C)=C\C=C\[C@H](C)[C@H](O)[C@@H](C)[C@@H](O)[C@@H](C)[C@H](OC(C)=O)[C@H](C)[C@@H](OC)/C=C/O[C@@](C)(O7)C6=O)CC1 (stereo in doubt; form 2)
Mycobacterium leprae [4]
  Activity: 0 pg
Mycobacterium leprae [5]
  Activity: 0.298 pmol
Mycobacterium leprae [6]
  Activity: 0 pg
Mycobacterium leprae [7]
  Activity: 0.76 pmol
Mycobacterium leprae [8]
  Activity: 1.28 pmol
Mycobacterium leprae [9]
  Activity: 0.77 pmol
Mycobacterium leprae [10]
  Activity: 0 pmol
Mycobacterium leprae [11]
  Activity: 233 pg
Mycobacterium leprae [12]
  Activity: 221 pg
Mycobacterium leprae [13]
  Activity: 363 pg
Mycobacterium leprae [14]
  Activity: 0 pmol
Mycobacterium leprae [15]
  Activity: 0 pg
Mycobacterium leprae [16]
  Activity: 0 pmol
Mycobacterium leprae [17]
  Activity: 0 pg
Mycobacterium leprae [18]
  Activity: 298 pg
Mycobacterium leprae [19]
  Activity: 0 pmol

## Brc1ccc(/N=N/c2ccc(NCCCN3CCCCC3)c3c2CCCC3)cc1
[20]
  MST: 19 days
[21]
  MST: 11 days
[22]
  MST: 38 days

## O=[N+]([O-])c1ccc(/C=N/NC(=S)Nc2ccc(C(F)(F)F)cc2)cc1
Listeria monocytogenes
  MIC: 400 µg/mL (≈ 1090 µM)
Staphylococcus aureus
  MIC: 400 µg/mL (≈ 1090 µM)
Pseudomonas aeruginosa
  MIC: 400 µg/mL (≈ 1090 µM)
Escherichia coli [23]
  MIC: 400 µg/mL (≈ 1090 µM)
[24]
  MIC: 400 µg/mL (≈ 1090 µM)
Klebsiella pneumoniae
  MIC: 400 µg/mL (≈ 1090 µM)
Enterococcus faecalis [25]
  MIC: 400 µg/mL (≈ 1090 µM)
Escherichia coli [26]
  MIC: 400 µg/mL (≈ 1090 µM)
Nakaseomyces glabratus
  MIC: 200 µg/mL (≈ 543 µM)
Enterococcus faecalis [27]
  MIC: 100 µg/mL (≈ 271 µM)

## OC[C@H]1O[C@@H](n2cnc3c(-c4ccco4)nc(Cl)nc32)[C@H](O)[C@@H]1O
[3]
  inhibition at 6.25 µg/mL: 7%
[28]
  inhibition (INH): 100%
[29]
  IC50: 3.4 µg/mL (≈ 9.64 µM)

## CO[C@H]1/C=C/O[C@@]2(C)Oc3c(C)c(O)c4c(=O)c(c5oc6cc(N7CCN(CC(C)C)CC7)cc(O)c6nc-5c4c3C2=O)NC(=O)/C(C)=C\C=C\[C@H](C)[C@H](O)[C@@H](C)[C@@H](O)[C@@H](C)[C@H](OC(C)=O)[C@@H]1C [RIFALAZIL]
Mycobacterium leprae [4]
  Activity: 0 pg
Mycobacterium leprae [5]
  Activity: 0.72 pmol
Mycobacterium leprae [6]
  Activity: 0 pg
Mycobacterium leprae [7]
  Activity: 0 pmol
Mycobacterium leprae [8]
  Activity: 0 pmol
Mycobacterium leprae [9]
  Activity: 0 pmol
Mycobacterium leprae [10]
  Activity: 0.73 pmol
Mycobacterium leprae [11]
  Activity: 0 pg
Mycobacterium leprae [12]
  Activity: 0 pg
Mycobacterium leprae [13]
  Activity: 211 pg
Mycobacterium leprae [14]
  Activity: 0 pmol
Mycobacterium leprae [15]
  Activity: 0 pg
Mycobacterium leprae [16]
  Activity: 0 pmol
Mycobacterium leprae [17]
  Activity: 0 pg
Mycobacterium leprae [18]
  Activity: 227 pg
Mycobacterium leprae [19]
  Activity: 0 pmol

## COc1cc(Cc2cnc(N)nc2N)cc(OC)c1Br [BRODIMOPRIM]
Mycobacterium leprae [30]
  Activity: 296 pg
Mycobacterium leprae [31]
  MIC: 0.025 µg/mL (≈ 0.0737 µM)
Mycobacterium leprae [32]
  Activity: 0 pg
Mycobacterium leprae [33]
  Activity: 0 pmol
Mycobacterium leprae [34]
  Activity: 109 pg
Mycobacterium leprae [35]
  Activity: 346 pg
Mycobacterium leprae [36]
  Activity: 0 pmol
Mycobacterium leprae [37]
  Activity: 0.27 pmol
Mycobacterium leprae [38]
  Activity: 0.88 pmol
Mycobacterium leprae [39]
  Activity: 0 pg
Mycobacterium leprae [40]
  Activity: 1.1 pmol
Mycobacterium leprae [41]
  Activity: 108 pg
Mycobacterium leprae [42]
  Activity: 0.24 pmol
